# Key:
# [1] = system: Diet-Induced Obese (DIO) C57BL/6J mice; assay: Glucokinase activator in vivo screen, blood glucose in DIO mice; conditions: Mus musculus; 2 hours post 25 mg/kg oral dose in DIO mice, vs control; read-out: % gluc @ 2 H (% glucose lowering vs control)
# Procedure: Glucokinase Activator in vivo Screen Protocol in Lean and Diet Induced Obese Mice: Lean or Diet-Induced Obese (DIO) C57BL/6J mice were orally dosed via gavage with Glucokinase (GK) activator (50 mg/kg body weight for lean mice, 25 mg/kg body weight for DIO mice) following a two hour fasting period. Blood glucose determinations were made four times during the six hour post-dose study period.
# C57Bl/6J mice were obtained from Jackson Laboratory (Bar Harbor, Me.) and were maintained in a light-dark cycle with lights on from 0600-1800 hr. For studies in lean mice, the mice were received at age six weeks and given ad libitum access to control diet (LabDiet 5001 chow, PMI Nutrition, Brentwood, Mo.), and were at least age 11 weeks at the time of study. For studies in the DIO model, the mice were received at age five weeks and given ad libitum access to Bio-Serv F3282 High Fat Diet (Frenchtown, N.J.), and were at least age 16 weeks at the time of study. The experiments were conducted during the light phase of the light-dark cycle. Mice (n=6) are weighed and fasted for a two hour period prior to oral treatment. GK activators are formulated in Gelucire vehicle (Ethanol:Gelucire44/14:PEG400q.s. 4:66:30 v/w/v. For studies in lean mice, the mice were dosed orally with 5.0 μL per gram of body weight with 5 ml/kg×10.0 mg/ml formulation to equal a 50 mg/kg dose. For studies in DIO mice, the mice were dosed orally with 5.0 μL per gram of body weight with […] formulation to equal a 25 mg/kg dose. Immediately prior to dosing, a pre-dose (time zero) blood glucose reading was acquired by snipping off a small portion of the animal's tail (˜1 mm) and collecting 15 μL blood into a heparinized capillary tube for analysis. Following GK activator administration, additional blood glucose readings were taken at 2, 4 and 6 hours post dose from the same tail wound. Results were interpreted by comparing the mean blood glucose values of six vehicle treated mice with six GK activator treated mice over the six hour study duration.
# [2] = molecular target: T1, Recombinant human liver GK1 (GST-GK) (Homo sapiens, UniProt P35557); assay: Glucokinase in vitro assay (G6PDH-coupled, NADH at OD340); type: biochemical; conditions: 25° C., 5 mM D-glucose, 10% DMSO, GST-GK
# T1 construct: made in house; host or cells: E. coli
# T1 sequence (P35557 1-466 isoform P35557-2): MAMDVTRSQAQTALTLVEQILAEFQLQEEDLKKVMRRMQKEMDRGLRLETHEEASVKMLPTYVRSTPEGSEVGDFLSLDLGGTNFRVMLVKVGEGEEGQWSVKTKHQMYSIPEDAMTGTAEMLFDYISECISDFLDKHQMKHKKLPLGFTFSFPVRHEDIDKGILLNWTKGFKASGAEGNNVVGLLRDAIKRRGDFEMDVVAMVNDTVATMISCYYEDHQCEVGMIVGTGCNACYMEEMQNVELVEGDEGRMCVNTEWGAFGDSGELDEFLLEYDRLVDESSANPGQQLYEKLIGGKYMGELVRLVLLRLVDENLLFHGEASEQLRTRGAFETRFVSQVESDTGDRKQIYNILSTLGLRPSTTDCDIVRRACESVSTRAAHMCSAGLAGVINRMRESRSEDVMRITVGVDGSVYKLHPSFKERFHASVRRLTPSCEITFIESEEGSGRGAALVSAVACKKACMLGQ
# Procedure: Glucokinase In Vitro Assay Protocol: Glucokinase (GK) was assayed by coupling the production of glucose-6-phosphate to the generation of NADH with glucose-6-phosphate dehydrogenase (G6PDH, 0.75-1 kunits/mg; Boehringer Mannheim, Indianapolis, Ind.) from Leuconostoc mesenteroides as the coupling enzyme (Scheme 2).
# Recombinant human liver GK1 was expressed in E. coli as a glutathione S-transferase fusion protein (GST-GK) [Liang et al, 1995] and was purified by chromatography over a glutathione-Sepharose 4B affinity column using the procedure provided by the manufacturer (Amersham Pharmacia Biotech, Piscataway, N.J.).
# The assay was conducted at 25° C. in a flat bottom 96-well tissue culture plate from Costar (Cambridge, Mass.) with a final incubation volume of 120 μL. The incubation reaction contained the following: 25 mM Hepes buffer (pH 7.1), 25 mM KCl, 5 mM D-glucose, 1 mM ATP, 1.8 mM NAD, 2 mM MgCl2, 1 μM sorbitol-6-phosphate, 1 mM dithiothreitol, test drug or 10% DMSO, 1.8 unit/ml G6PDH, and GK (see below). All organic reagents were >98% pure and were from Boehringer Mannheim with the exceptions of D-glucose and Hepes which were from Sigma Chemical Co, St Louis, Mo. Test compounds were dissolved in DMSO and were added to the incubation reaction minus GST-GK in a volume of 12 μL to yield a final DMSO concentration of 10%. This mix was pre-incubated in the temperature controlled chamber of a SPECTRAmax 250 microplate spectrophotometer (Molecular Devices Corporation, Sunnyvale, Calif.) for 10 minutes to allow temperature equilibrium and then the reaction was started by the addition of 20 μL GST-GK.
# After addition of enzyme, the increase in optical density (OD) at 340 nm was monitored over a 10 minute incubation period as a measure of GK activity. Sufficient GST-GK was added to produce an increase in OD340 of 0.08 to 0.1 units over the 10 minute incubation period in wells containing 10% DMSO but no test compound. Preliminary experiments established that the GK reaction was linear over this period of time even in the presence of activators that produced a 5-fold increase in GK activity. The GK activity in control wells was compared with the activity in wells containing test GK activators, and the concentration of activator that produced a 50% increase in the activity of GK, i.e., the SC1.5, was calculated.
smiles,measurement,setting,value
"O=C(Nc1ccn(CCCO)n1)[C@H](CC1CCCC1)c1cccc(C(F)(F)F)c1 [Example 85, 3-Cyclopentyl-N-[1-(3-hydroxy-propyl)-1H-pyrazol-3-yl]-2(R)-(3-trifluoromethyl-phenyl)-propionamide]",change in vivo at 25 mg/kg,[1],-20.5%
same,SC1.5 (concentration of activator that produced a 50% increase in the activity of GK),[2],0.779 µM

# — patent publication US7935699B2, “Pyrazole glucokinase activators” (Hoffmann-La Roche Inc., priority 2006, dated 2011)
